From patent US20240201172A1, “USE OF ODORANT RECEPTOR FOR SUPPRESSING LACTATE-INDUCED M2-TYPE DIFFERENTIATION OF TUMOR-ASSOCIATED MACROPHAGES AND TUMOR GROWTH” (KYUNGPOOK NATIONAL UNIVERSITY INDUSTRY-ACADEMIC COOPERATION …, priority 2021, published 2024)

Key:
Format in all cases: cell-based
[1] = target: T1, Olfr78/Gpr132 (Mus musculus, UniProt Q8VBV9+Q9Z282); assay: Luciferase assay in transfected Hana3A cells; settings: Hana3A cells cotransfected with Olfr78 and Gpr132 vs Olfr78 or Gpr132 alone, FIG. 6D
T1 construct: expressed in transfected cells; host or cells: Hana3A cells
T1 sequence (Q8VBV9 1-320): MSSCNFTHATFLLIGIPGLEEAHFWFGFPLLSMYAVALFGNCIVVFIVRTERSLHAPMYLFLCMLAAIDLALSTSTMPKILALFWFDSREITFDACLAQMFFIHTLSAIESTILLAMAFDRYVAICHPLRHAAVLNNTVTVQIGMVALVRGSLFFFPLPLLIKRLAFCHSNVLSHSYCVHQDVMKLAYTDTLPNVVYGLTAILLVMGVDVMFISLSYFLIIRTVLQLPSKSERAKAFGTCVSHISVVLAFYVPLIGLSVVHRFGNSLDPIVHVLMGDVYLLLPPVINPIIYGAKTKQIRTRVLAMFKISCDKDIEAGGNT
T1 sequence (Q9Z282 1-382): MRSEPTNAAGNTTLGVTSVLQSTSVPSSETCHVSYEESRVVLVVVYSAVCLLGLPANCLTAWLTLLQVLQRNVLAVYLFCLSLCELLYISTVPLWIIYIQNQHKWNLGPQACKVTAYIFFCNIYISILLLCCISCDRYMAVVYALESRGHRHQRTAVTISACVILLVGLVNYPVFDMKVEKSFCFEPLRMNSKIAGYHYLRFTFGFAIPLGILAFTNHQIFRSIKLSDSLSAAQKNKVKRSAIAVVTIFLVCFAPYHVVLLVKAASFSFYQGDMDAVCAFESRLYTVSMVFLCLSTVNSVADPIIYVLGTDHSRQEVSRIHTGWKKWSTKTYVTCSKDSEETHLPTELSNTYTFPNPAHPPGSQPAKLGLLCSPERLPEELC
Protocol: Luciferase assays were performed using the Dual-Glo™ Luciferase Assay System (Promega, Madison, WI). Briefly, Mock-, Olfr78−, Gpr132−, or Olfr78/Gpr132 transiently transfected Hana3A cells were stimulated with various concentrations of sodium lactate diluted in CD293 medium at 37° C. for 4 h. The activity of firefly luciferase was normalized against that of Renilla luciferase. Luminescence was measured on a SpectraMax L microplate reader (Molecular Devices, San Jose, CA).

[2] = system: BMDMs; assay: M1/M2 polarization of mouse BMDMs (flow cytometry, qRT-PCR, cell shape); settings: for Olfr78 expression: BMDMs differentiated into M2 or M1 macrophages, FIG. 1B
Protocol: BMDMs were isolated from tibias and femurs of C57BL6 or Balb/c mice and cultured in DMEM supplemented with 10 ng/mL macrophage colony-stimulating factor (Gibco, Carlsbad, CA) and 10% FBS for 7 d. The culture medium was changed every other day. For M1 polarization, BMDMs were cultured with 20 ng/mL recombinant mouse IFN-γ (R&D Systems) plus 100 ng/mL LPS for 24 to 48 h. For M2 polarization, BMDMs were cultured with 20 ng/mL recombinant mouse IL-4 for 24 to 48 h. For lactate-mediated M2 polarization, BMDMs were treated with 10 mM lactate (Sigma-Aldrich, St. Louis, MO) at 37° C. in a humidified atmosphere containing 5% CO2 for 24 to 48 h.
(§1) Anti-CD11b, anti-CD3, anti-CD4, anti-CD8, anti-CD86, anti-F4/80, anti-CD206, anti-CD163, and anti-Gr1 antibodies were purchased from BioLegend (San Diego, CA). An anti-Olfr78 antibody was purchased from LSBio (Seattle, WA). Anti-CD206 and anti-CD86 antibody was purchased from Santa Cruz Biotechnology (Dallas, TX). Cells were fixed with 4% paraformaldehyde and then reacted with an untagged primary antibody or a dye-tagged antibody at 4° C. for 30 min in the dark. Cells treated with an untagged primary antibody (anti-Olfr78, anti-CD206, and anti-CD86) were washed and reacted with a dye-tagged secondary antibody. At least 10,000 or more events were analyzed using a flow cytometer (BD Bioscience, San Jose, CA). Data were evaluated using CellQuest Pro software (BD Biosciences). To prepare cell suspensions from tumor tissues, freshly excised tumors were fragmented into several pieces, minced into 2-3 mm^3 pieces, and reacted with collagenase D (Roche, Basel, Switzerland) and DNase (Sigma-Aldrich) at 37° C. for 40 min. The tissue samples were filtered through a 100 μm cell strainer (Falcon, Corning, NY) to collect digested cells. Collected cells were resuspended in phosphate-buffered saline containing FBS and subjected to flow cytometry.
(§2) Cells were lysed using QIAzol lysis reagent (Qiagen, Hilden, Germany). RNA was isolated from cell lysates using an miRNeasy Mini Kit (Qiagen) and subjected to qRT-PCR. Primers targeting Arg1, IL-10, IL-4, TGF-0, IL-12p40, IFN-γ, and R-actin were obtained from Bioneer Inc. (Daejeon, Korea). cDNA was synthesized using a PrimeScript 1st cDNA Synthesis Kit (Takara, Shiga, Japan). qPCR using SYBR Green (Qiagen) was performed on a real time cycler (Bio-Rad, Hercules, CA). R-Actin was used as an endogenous control. Data used to determine relative expression were analyzed according to the Livak method.
To examine the involvement of Olfr78 in lactate-induced M2 polarization of macrophages, the present inventors conducted investigation on whether Olfr78 was expressed in BMDMs isolated from Olfr78^+/+ (WT) and Olfr78^−/− mice. […] Next, the present inventors differentiated BMDMs into M1 and M2 macrophages to investigate whether the expression level of Olfr78 was regulated according to macrophage polarization. Lactate, TCM, and IL-4 were used to stimulate M2 polarization, while lipopolysaccharide (LPS) plus interferon (IFN)-γ (L+I) was used to stimulate M1 polarization. […] To investigate the effect of Olfr78 on macrophage polarization, the present inventors measured the protein levels of M2 macrophage markers such as CD206 (FIG. 1C) and the mRNA levels of IL-4, IL-10, and TGF-β(FIGS. 1E-G), as well as M1 macrophage markers such as CD86 (FIG. 1D) and the mRNA levels of IL-12 and IFN-γ (FIGS. 1H and 1I) when WT and Olfr78^−/− BMDMs were differentiated into M1 and M2 macrophages. […] Next, the present inventors restored Olfr78 expression in Olfr78^−/− BMDMs by transfecting them with a Flag-tagged Olfr78 expression vector.

[3] = system: THP-1 human immortalized monocytes; assay: M1/M2 polarization of PMA-treated THP-1 human monocytes; settings: for M1 markers such as iNOS, CD86, TNF-α, and IL-12B / M2 markers such as Arg-1, CD163, CD206, and IL-10: OR51E2-depleted THP1 cells vs untreated; for M1 markers such as iNOS, CD86, TNF-α, and IL-12B: FIGS. 3D, 3E, 3I-K; for M2 markers such as Arg-1, CD163, CD206, and IL-10: FIGS. 3D-H; for protein and mRNA levels of OR51E2: FIGS. 2B, 2C; for levels of M2 macrophage markers such as Arg1, CD206, CD163, and IL-10: FIGS. 2D-H
Protocol: as §1, §2
For coimmunoprecipitation assays, cells were lysed with M-PER Mammalian Protein Extraction Reagent (ThermoFisher Scientific, Waltham, MA). Cell lysates were reacted with 2 μg of an antibody against Olfr78 or Gpr132 at 4° C. overnight and then with 100 μl of protein A-agarose beads (ThermoFisher Scientific) at 4° C. for 4 h with agitation. The beads were boiled, and the eluates were subjected to Western blotting with an antibody against Olfr78 or Gpr132. 40 μg of protein was electrophoresed on a 10% SDS-PAGE gel and transferred to a membrane (MilliPore, Burlington, MA). The membrane was reacted with antibodies against iNOS (Abcam, Cambridge, UK), Arg1 (Abcam), and R-actin (Santa Cruz Biotechnology) at 4° C. overnight followed by secondary antibody at room temperature for 2 h, and then exposed to a chemiluminescence substrate (ThermoFisher Scientific). Signals were visualized using an LAS1000 enhanced chemiluminescence detection system (Fuji Film, Minato, Tokyo).
To examine the effect of ORs on M2 polarization of human macrophages, THP-1 human immortalized monocytes were treated with phorbol myristate acetate (PMA) and then with L+I, IL-4, TCM, or lactate.

[4] = system: lactate dehydrogenase; assay: Lactate concentration in TCM of mouse tumor cell lines pretreated with oxamic acid; settings: pretreatment of mouse tumor cell lines, FIG. 4A
Protocol: The concentrations of lactate and acetate in TCM of cells cultured at 80% confluency were measured using lactate and acetate colorimetric assay kits (BioVision, Milpitas, CA). Briefly, 50 μL of TCM was mixed with lactate or acetate enzyme mix and the probe according to the manual and reacted for 30 min at room temperature. The concentrations of cytokines in the conditioned medium of macrophages were measured using cytokine ELISA kits (R&D Systems). Briefly, 100 μL of conditioned medium was added to plates precoated with antibodies against IL-4, IL-10, and TGF-β. Samples were reacted with corresponding antibodies conjugated to biotin and then with horseradish peroxidase-labeled streptavidin. Absorbance at 570 nm was measured using a microplate reader. The concentrations of lactate, acetate, and cytokines were calculated from the standard curves.
To determine, though lactate is known to be important in M2 macrophage polarization, whether lactate is the main factor in TCM responsible for Olfr78-mediated M2 macrophage polarization, the prevent inventors treated WT BMDMs with TCM of mouse tumor cell lines pretreated with oxamic acid (OA), an inhibitor of lactate dehydrogenase that prevents lactate production. […] Up-regulation of M2 markers was attenuated (P<0.05) in WT BMDMs treated with lactate-depleted TCM (TCM+OA). […]

For `CC(O)C(=O)[O-].[Na+]` (stereo not drawn) [sodium lactate], which Relative luciferase activity [1] is on record?
The Relative luciferase activity was “significantly higher”.

Which results are given for lactate?
Olfr78 expression [2]: significantly increased; mRNA levels of IL-4, IL-10, and TGF-β (lactate-induced) ([2]; Gpr132-depleted Olfr78−/− BMDMs, FIGS. 6G-I): further reduced; Lactate-induced up-regulation of mRNA levels of M2 cytokines such as IL-4, IL-10, TGF-β, and Arg1 ([2]; Gpr132-depleted WT BMDMs, FIGS. 6G-J): significantly (P<0.01) reduced; M2-specific and M1-specific markers ([2]; Olfr78−/− BMDMs vs untreated, FIGS. 1C-I): did not exhibit up-regulation of M2-specific markers or down-regulation of M1-specific markers; protein level of CD206 (M2 marker) ([2]; WT BMDMs vs untreated, FIG. 1C): dramatically (P<0.001) higher; protein level of CD86 (M1 marker) ([2]; WT BMDMs vs untreated, FIG. 1D): significantly lower; mRNA levels of IL-4, IL-10, and TGF-β (M2 markers) ([2]; WT BMDMs vs untreated, FIGS. 1E-G): dramatically (P<0.001) higher; mRNA levels of IL-12 and IFN-γ (M1 markers) ([2]; WT BMDMs vs untreated, FIGS. 1H and 1I): significantly lower; M2 polarization markers, such as CD206, IL-4, IL-10, and TGF-0 ([2]; WT BMDMs vs untreated, FIGS. 4B-E): significant up-regulation; percentage of cells with an elongated shape ([2]; WT BMDMs vs untreated, FIGS. 4F, 4G): increase; M2 polarization of THP-1 human monocytes ([3]; FIG. 2 legend): induces M2 polarization; M1 markers such as iNOS, CD86, TNF-α, and IL-12B [3]: did not up-regulate M2 markers such as Arg-1, CD163, CD206, and IL-10 (FIGS. 3D-H) or down-regulate M1 markers; M2 markers such as Arg-1, CD163, CD206, and IL-10 [3]: did not up-regulate; iNOS levels ([3]; THP-1 cells vs untreated, FIGS. 2D, 2E): decreased; protein and mRNA levels of OR51E2 ([3]; THP-1 cells): significantly (P<0.01) increased; levels of M2 macrophage markers such as Arg1, CD206, CD163, and IL-10 ([3]; THP-1 cells): increased; levels of M1 macrophage markers such as CD86, TNF-α, and IL-12B ([3]; THP-1 cells, FIGS. 2I-K): did not affect

For `NC(=O)C(=O)O` [OA, oxamic acid], which “lactate in TCM” value [4] is on record?
Its value is “almost completely depleted”.

How did the M2 polarization ([2]; Olfr78−/− BMDMs, FIGS. 4H-J) turn out when `CC(=O)O` [acetate] was run?
Its M2 polarization is “did not induce M2 polarization”.

And the “mRNA levels of M2 markers such as IL-4, IL-10, and TGF-β” value ([2]; WT BMDMs, FIGS. 4H-J)?
The value was “significantly (P<0.001) increased”.

B1: IL-4: recombinant interleukin-4 used to stimulate M2 polarization (protein, UniProt P05112 25-153, looked up)
Interleukin-4: HKCDITLQEIIKTLNSLTEQKTLCTELTVTDIFAASKNTTEKETFCRAATVLRQFYSHHEKDTRCLGATAQQFHRHKQLIRFLKRLDRNLWGLAGLNSCPVKEANQSTLENFLERLKTIMREKYSKCSS
Which Olfr78 expression [2] does the source give for B1 here?
Its Olfr78 expression is “significantly increased”.

What about the CD206 ([2]; Olfr78−/− BMDMs, FIG. 1C) of the same molecule?
Its CD206 is “still up-regulated”.

And the CD86 ([2]; Olfr78−/− BMDMs, FIG. 1D)?
The CD86 was “down-regulated”.

And the “protein level of CD206 (M2 marker)” value ([2]; WT BMDMs vs untreated, FIG. 1C)?
Its value is “up-regulated”.

And the “protein level of CD86 (M1 marker)” value ([2]; WT BMDMs vs untreated, FIG. 1D)?
Its value is “down-regulated”.

And the “M1 markers such as iNOS, CD86, TNF-α, and IL-12B” value [3]?
Its value is “down-regulated”.

What about the “M2 markers such as Arg-1, CD163, CD206, and IL-10” value [3] of the same molecule?
The value was “still up-regulated”.

And the “protein and mRNA levels of OR51E2” value ([3]; THP-1 cells)?
Its value is “significantly (P<0.01) increased”.

And the “levels of M2 macrophage markers such as Arg1, CD206, CD163, and IL-10” value ([3]; THP-1 cells)?
Its value is “increased”.
